Results taken from patent publication US6156700A, “3-(1,2-Benzisothiazol- and isoxazol-5-yl)-2,4(1H,3H)-pyrimidinedione or thione and 3-(1,2-benzisothiazol- and isoxazol-5-yl)-4(3H)-pyrimidinone or thione herbicidal agents” (American Cyanmid Company, priority 1998, dated 2000).
Several values for one entry are separate records, joined by “and”; a condition that tells them apart may be missing. Equal entries are not always repeated.

What was measured:
[1] = system: TRZAWR; assay: Postemergence herbicidal evaluation; type: in vivo
[2] = system: CHEAL; assay: Postemergence herbicidal evaluation; type: in vivo
[3] = system: IPOSS; assay: Postemergence herbicidal evaluation; type: in vivo
[4] = system: Soybean, Glycine max; assay: Preemergence herbicidal evaluation, GLXMA; type: in vivo, (L.) Merr.; details: 0.2500 kg/ha
From the text: (§1) Results of herbicide evaluation are expressed on a rating scale (0-9). The scale is based upon a visual observation of plant stand, vigor, malformation, size, chlorosis and overall plant appearance as compared with a control.
(§2) The preemergence herbicidal activity of the test compounds of the present invention is exemplified by the following tests in which the seeds of a variety of monocotyledonous and dicotyledonous plants are separately mixed with potting soil and planted on top of approximately one inch of soil in separate pint cups. After planting, the cups are sprayed with the selected aqueous acetone solution containing test compound in sufficient quantity to provide the equivalent of about 0.0156 to 0.500 kg per hectare of test compound per cup. The treated cups are then placed on greenhouse benches, watered and cared for in accordance with conventional greenhouse procedures. From four to five weeks after treatment, the tests are terminated and each cup is examined and rated according to the rating system provided in Example 185.
(§3) The compounds evaluated are reported by compound number given in Example 185.

[5] = system: ORYSAT; assay: Postemergence herbicidal evaluation; type: in vivo, Oryza sativa
[6] = system: GLXMA; assay: Preemergence herbicidal evaluation; type: in vivo
Method: The preemergence and postemergence herbicidal properties of certain compounds of the present invention are compared with certain compounds disclosed in U.S. Pat. Nos. 5,484,763 and 5,523,278. The evaluations are performed as described in Examples 185 and 186. Data in Tables V and VI are reported by the compound number given in Example 185 for the compounds of this invention or by comparative compound letter for the compounds disclosed in U.S. Pat. Nos. 5,484,763 and 5,523,278.

[7] = system: ZEAMX; assay: Preemergence herbicidal evaluation; type: in vivo; set-up: scale not given here
[8] = system: CHEAL; assay: Preemergence herbicidal evaluation; type: in vivo; set-up: scale not given here
[9] = system: IPOSS; assay: Preemergence herbicidal evaluation; type: in vivo; set-up: scale not given here
[10] = system: GALAP; assay: Preemergence herbicidal evaluation; type: in vivo; set-up: scale not given here
[11] = system: CASOB; assay: Preemergence herbicidal evaluation; type: in vivo; set-up: scale not given here
[12] = system: ABUTH; assay: Preemergence herbicidal evaluation; type: in vivo; set-up: scale not given here
[13] = system: SETVI; assay: Preemergence herbicidal evaluation; type: in vivo; set-up: scale not given here
[14] = system: ECHCG; assay: Preemergence herbicidal evaluation; type: in vivo; set-up: scale not given here
[15] = system: TRZAWR; assay: Preemergence herbicidal evaluation; type: in vivo; set-up: scale not given here
[16] = system: AMBEL; assay: Preemergence herbicidal evaluation; type: in vivo; set-up: scale not given here
[17] = system: SETVI; assay: Postemergence herbicidal evaluation; type: in vivo
[18] = system: GLXMA; assay: Postemergence herbicidal evaluation; type: in vivo
[19] = system: AMBEL; assay: Postemergence herbicidal evaluation; type: in vivo
[20] = system: Soybean, Williams, Glycine max; assay: Preemergence herbicidal evaluation, GLXMAW; type: in vivo, (L.) Merr. cv Williams; details: 0.2500 kg/ha
From the text: as §1, §2, §3

Structure (SMILES): Cc1nsc2ccc(-n3c(=O)cc(C(F)(F)F)n(C)c3=O)cc12 [Compound 6, 1-Methyl-3-(3-methyl-1,2-benzisothiazol-5-yl)-6-(trifluoromethyl)-2,4(1H,3H)-pyrimidinedione]
- herbicidal effect rating ([1]; 0.0625-0.0640 kg/ha): 3.0 and 1.5 and 2.0
- herbicidal effect rating ([1]; 0.1250 kg/ha): 2.5
- herbicidal effect rating ([1]; 0.2500 kg/ha): 5.0
- herbicidal effect rating ([1]; 0.5000 kg/ha): 6.0
- herbicidal effect rating ([2]; 0.0313-0.0320 kg/ha): 6.5 and 5.0 and 9.0
- herbicidal effect rating ([2]; 0.0625-0.0640 kg/ha): 9.0 and 7.0
- herbicidal effect rating ([2]; 0.1250 kg/ha): 9.0
- herbicidal effect rating ([2]; 0.2500 kg/ha): 9.0
- herbicidal effect rating ([2]; 0.5000 kg/ha): 9.0
- herbicidal effect rating ([3]; 0.0157-0.0160 kg/ha): 7.5 and 7.0
- herbicidal effect rating ([3]; 0.0313-0.0320 kg/ha): 9.0 and 8.0
- herbicidal effect rating ([3]; 0.0625-0.0640 kg/ha): 9.0
- herbicidal effect rating ([3]; 0.1250 kg/ha): 9.0
- herbicidal effect rating ([3]; 0.2500 kg/ha): 9.0
- herbicidal effect rating ([3]; 0.5000 kg/ha): 9.0
- herbicide rating (0-9) [4]: 9.0
- herbicidal effect rating ([5]; 0.0313-0.0320 kg/ha): 1.5 and 1.0
- herbicidal effect rating ([5]; 0.0625-0.0640 kg/ha): 1.0 and 1.8 and 1.5
- herbicidal effect rating ([5]; 0.1250 kg/ha): 4.5
- herbicidal effect rating ([5]; 0.2500 kg/ha): 5.0
- herbicidal effect rating ([5]; 0.5000 kg/ha): 5.0
- herbicidal effect rating ([6]; 0.0156-0.0160 kg/ha): 2.0
- herbicidal effect rating ([6]; 0.0313-0.0320 kg/ha): 2.0
- herbicidal effect rating ([6]; 0.0620-0.0630 kg/ha): 4.0
- herbicidal effect rating ([6]; 0.1250 kg/ha): 7.0
- herbicidal effect rating ([6]; 0.2500 kg/ha): 9.0
- herbicidal effect rating ([6]; 0.5000 kg/ha): 9.0
- herbicidal effect rating ([7]; 0.0313-0.0320 kg/ha): 4.2 and 7.5 and 5.3
- herbicidal effect rating ([7]; 0.0620-0.0630 kg/ha): 8.0 and 6.0
- herbicidal effect rating ([7]; 0.1250 kg/ha): 6.5
- herbicidal effect rating ([7]; 0.2500 kg/ha): 9.0
- herbicidal effect rating ([7]; 0.5000 kg/ha): 9.0
- herbicidal effect rating ([8]; 0.0156-0.0160 kg/ha): 8.8 and 9.0 and 5.0
- herbicidal effect rating ([8]; 0.0313-0.0320 kg/ha): 9.0 and 8.0
- herbicidal effect rating ([8]; 0.0620-0.0630 kg/ha): 9.0
- herbicidal effect rating ([8]; 0.1250 kg/ha): 9.0
- herbicidal effect rating ([8]; 0.2500 kg/ha): 9.0
- herbicidal effect rating ([8]; 0.5000 kg/ha): 9.0
- herbicidal effect rating ([9]; 0.0156-0.0160 kg/ha): 7.5
- herbicidal effect rating ([9]; 0.0313-0.0320 kg/ha): 7.5 and 7.0
- herbicidal effect rating ([9]; 0.0620-0.0630 kg/ha): 7.0
- herbicidal effect rating ([9]; 0.1250 kg/ha): 9.0
- herbicidal effect rating ([9]; 0.2500 kg/ha): 9.0
- herbicidal effect rating ([9]; 0.5000 kg/ha): 9.0
- herbicidal effect rating ([10]; 0.0156-0.0160 kg/ha): 4.8 and 8.5
- herbicidal effect rating ([10]; 0.0313-0.0320 kg/ha): 5.3 and 8.5 and 9.0
- herbicidal effect rating ([10]; 0.0620-0.0630 kg/ha): 9.0
- herbicidal effect rating ([10]; 0.1250 kg/ha): 9.0
- herbicidal effect rating ([10]; 0.2500 kg/ha): 9.0
- herbicidal effect rating ([10]; 0.5000 kg/ha): 9.0
- herbicidal effect rating ([11]; 0.0313-0.0320 kg/ha): 6.0 and 9.0 and 4.5
- herbicidal effect rating ([11]; 0.0620-0.0630 kg/ha): 7.0 and 5.5
- herbicidal effect rating ([11]; 0.1250 kg/ha): 6.5
- herbicidal effect rating ([11]; 0.2500 kg/ha): 9.0
- herbicidal effect rating ([11]; 0.5000 kg/ha): 9.0
- herbicidal effect rating ([12]; 0.0313-0.0320 kg/ha): 9.0 and 4.5
- herbicidal effect rating ([12]; 0.0620-0.0630 kg/ha): 9.0
- herbicidal effect rating ([12]; 0.1250 kg/ha): 9.0
- herbicidal effect rating ([12]; 0.2500 kg/ha): 9.0
- herbicidal effect rating ([12]; 0.5000 kg/ha): 9.0
- herbicidal effect rating ([13]; 0.0313-0.0320 kg/ha): 8.4 and 9.0 and 5.5
- herbicidal effect rating ([13]; 0.0620-0.0630 kg/ha): 9.0 and 6.0
- herbicidal effect rating ([13]; 0.1250 kg/ha): 9.0
- herbicidal effect rating ([13]; 0.2500 kg/ha): 9.0
- herbicidal effect rating ([13]; 0.5000 kg/ha): 9.0
- herbicidal effect rating ([14]; 0.0313-0.0320 kg/ha): 5.6 and 8.0 and 4.5
- herbicidal effect rating ([14]; 0.0620-0.0630 kg/ha): 9.0 and 5.5
- herbicidal effect rating ([14]; 0.1250 kg/ha): 6.0
- herbicidal effect rating ([14]; 0.2500 kg/ha): 9.0
- herbicidal effect rating ([14]; 0.5000 kg/ha): 9.0
- herbicidal effect rating ([15]; 0.0156-0.0160 kg/ha): 3.0 and 3.5
- herbicidal effect rating ([15]; 0.0313-0.0320 kg/ha): 5.6 and 6.5 and 6.3
- herbicidal effect rating ([15]; 0.0620-0.0630 kg/ha): 7.0 and 8.3
- herbicidal effect rating ([15]; 0.1250 kg/ha): 8.7
- herbicidal effect rating ([15]; 0.2500 kg/ha): 8.0
- herbicidal effect rating ([15]; 0.5000 kg/ha): 9.0
- herbicidal effect rating ([16]; 0.0313-0.0320 kg/ha): 7.4 and 9.0 and 4.5
- herbicidal effect rating ([16]; 0.0620-0.0630 kg/ha): 9.0 and 6.0
- herbicidal effect rating ([16]; 0.1250 kg/ha): 7.0
- herbicidal effect rating ([16]; 0.2500 kg/ha): 9.0
- herbicidal effect rating ([16]; 0.5000 kg/ha): 9.0
- herbicidal effect rating ([17]; 0.1250 kg/ha): 9.0
- herbicidal effect rating ([17]; 0.2500 kg/ha): 9.0
- herbicidal effect rating ([17]; 0.5000 kg/ha): 9.0
- herbicidal effect rating ([18]; 0.0157-0.0160 kg/ha): 2.5 and 4.0
- herbicidal effect rating ([18]; 0.0313-0.0320 kg/ha): 5.0 and 4.0
- herbicidal effect rating ([18]; 0.0625-0.0640 kg/ha): 4.0
- herbicidal effect rating ([18]; 0.1250 kg/ha): 6.0
- herbicidal effect rating ([18]; 0.2500 kg/ha): 6.0
- herbicidal effect rating ([18]; 0.5000 kg/ha): 7.0
- herbicidal effect rating ([19]; 0.0313-0.0320 kg/ha): 9.0 and 6.0 and 8.0
- herbicidal effect rating ([19]; 0.0625-0.0640 kg/ha): 9.0 and 6.5
- herbicidal effect rating ([19]; 0.1250 kg/ha): 9.0
- herbicidal effect rating ([19]; 0.2500 kg/ha): 9.0
- herbicidal effect rating ([19]; 0.5000 kg/ha): 9.0

Structure (SMILES): COc1ccc(C)cc1-c1nsc2ccc(-n3c(=O)cc(C(F)(F)F)n(C)c3=O)cc12 [Compound 1, 3-[3-(6-Methoxy-m-tolyl)-1,2-benzisothiazol-5-yl]-1-methyl-6-(trifluoromethyl)-2,4(1H,3H)-pyrimidinedione]
- herbicide rating (0-9) [20]: 7.5

Structure (SMILES): CCc1ccc(-c2nsc3ccc(-n4c(=O)cc(C(F)(F)F)n(C)c4=O)cc23)cc1 [Compound 5, 3-[3-(p-Ethylphenyl)-1,2-benzisothiazol-5-yl]-1-methyl-6-(trifluoromethyl)-2,4 (1H,3H)-pyrimidinedione]
- herbicide rating (0-9) [4]: 4.0
